Test results from patent US20160067232A1, “METHODS FOR TREATING A STROKE-RELATED SENSORIMOTOR IMPAIRMENT USING AMINOPYRIDINES” (Acorda Therapeutics, Inc., priority 2011, published 2016).
“And” between values parts separate entries of the source, which are not always exact repeats. Equal entries are not always repeated.

What was measured:
Format in all cases: in vivo, Sprague Dawley rat
[1] = test system: rats with middle cerebral artery occlusion (MCAO); test: Cylinder test, total movement, MCAO rats (Example 2); conditions: individual animals and Mean (N=15), listed as 4-AP
Protocol: Dosing and Treatment: Rats were treated in accordance with the dosing schedule shown in Tables 2A, 2B, 3 and FIG. 2, with each Phase being a two week period of time. A solution of 4-AP was used in this experiment. Dosing was started at 4 weeks after ischemic event. 4-aminopyridine was dissolved in water for injection (WFI, Cellgro) and sterile filtered. […] Vehicle control treatment was WFI delivered at 2 mL/kg by gastric gavage. […] Starting on day 30 after MCAO (Day 30, start of phase 1), the animals received gavage dosing of solutions (2 mL/kg) approximately 12 hours apart, for a total of five doses. The same schedule was repeated with different treatment on Day 44 and Day 58 for phase 2 and 3 of the study, respectively. Animals were not treated during the 10 days between phases (washout period). Treatment groups: Dosing was started 4 weeks after MCAO surgery. During these 4 weeks, weekly behavioral assessments, as defined below, were performed. Two dose levels of 4-AP plus vehicle control were assessed, with treatment starting at 4 weeks after ischemic event. […] Animals were given the first dose and behavioral assessments were performed starting 60 minutes after dosing. Animals then received the second dose that day at the appropriate time and b.i.d (preferably every 12 hours) thereafter for 2 more days (3 total days of dosing, 5 total doses). One hour after the 5th dose, animals were subjected to behavioral assessments as defined below. Following the final behavioral assessment, drug was withdrawn for 10 or 11 days, behavior was re-assessed, and then animals were re-challenged with a cross-over treatment (Phase 2 of Table 2B) as described in Tables 2A, 2B and 3, followed by the same behavioral testing and dosing regimen. This cross-over was repeated one more time as well (Phase 3 of Table 2B) (see FIG. 2). Cylinder Test: Evaluation was performed at Day −1 (pre-operation), Day 7, Day 21, Day 30, Day 32, Day 44, Day 46, Day 58, Day 60. This test assessed limb use asymmetry. Rats were placed in a transparent cylinder (20 cm in diameter and 30 cm in height) for 3-6 minutes. A mirror was placed behind the cylinder to determine forelimb movements when animal was turned away from the camera. […] Simultaneous use of both left and right forelimbs while contacting the wall during a full rear was also scored. A total number of 20 forelimb placings were counted during a trial. Data was expressed in terms of percent use of the non-impaired and or impaired forelimb relative to the total number of limb use observations for wall movements.

[2] = test system: rats with middle cerebral artery occlusion (MCAO); test: Infarct volume measurement (H&E), MCAO rats (Example 2); conditions: Day 63
Protocol: Euthanasia and post-mortem processing: Infarct Volume analysis. After the last behavioral assessment, rats were anesthetized deeply with ketamine/xylazine (100 mg/kg ketamine, 10 mg/kg xylazine, i.p.) and perfused transcardially with normal saline (with heparin 2 unit/ml) followed by 4% paraformaldehyde or formalin on Day 63. Brains were harvested and processed for histological assessment. A subset of 10 brains per group was processed for infarct volume measurement (H&E staining).
(§1) Infarct measurement: Brains were embedded in paraffin and 5 micron thick coronal sections were cut using a microtome. Sections were stained with hematoxylin and eosin (H&E), using standard methods. Seven coronal sections (+4.7, +2.7, +0.7, −1.3, −3.3, −5.3 and −7.3, compared to bregma respectively) from each brain were photographed by a digital camera, and the infarct area on each slice was determined by NIH Image (Image J) using the “indirect method” (area of the intact contralateral [left] hemisphere−area of intact regions of the ipsilateral [right] hemisphere) to correct for brain edema. Infarct areas were then summed among slices and multiplied by slice thickness (the distance between sections) to give total infarct volume, which was expressed as a percentage of intact contralateral hemispheric volume.

[3] = test system: rats with middle cerebral artery occlusion (MCAO); test: Infarct volume measurement, MCAO rats (Example 17)
Protocol: as §1
Euthanasia and post-mortem processing: At day 70 after MCAO rats were anesthetized as described in Example 2, above.
Infarct measurement: Infarct measurement was performed as described in Example 2, above.
Statistical Methods: Changes from pre-treatment baseline values (Day 56) were calculated for each behavioral score at each time point assessed after dosing. Mean behavioral parameter data were subject to Analysis of Variance (ANOVA). Infarct volume data were analyzed by ANOVA. All data were expressed as means±SEM.

Nc1ccncc1 [4-aminopyridine]
Cylinder Test (Total Movement) Group 1, D30 ([1]; Group 1, D30, treatment phase 1 (high-dose 4-AP)): 0.00 (5×) and 75.00 and 2.00 and 10.00 (2×) and 6.00 and 13.00 and 12.00 and 4.00 and 5.00 (2×)
Cylinder Test (Total Movement) Group 1, D32 ([1]; Group 1, D32, treatment phase 1 (high-dose 4-AP)): 11.00 and 54.00 and 22.00 and 39.00 and 10.00 and 8.00 and 14.00 and 15.00 and 0.00 (2×) and 38.00 and 2.00 and 1.00 and 6.00 and 23.00
Cylinder Test (Total Movement) Group 1, D44 ([1]; Group 1, D44, treatment phase 2 (low-dose 4-AP)): 28.00 and 93.00 and 48.00 and 57.00 and 47.00 and 9.00 and 11.00 and 5.00 and 66.00 and 25.00 and 6.00 and 43.00 and 20.00 and 7.00
Cylinder Test (Total Movement) Group 1, D46 ([1]; Group 1, D46, treatment phase 2 (low-dose 4-AP)): 11.00 and 47.00 and 43.00 and 48.00 and 46.00 and 12.00 and 63.00 and 4.00 and 0.00 (2×) and 13.00 and 2.00 and 6.00 and 39.00 and 24.00
Mean infarct volume (% of contralateral hemisphere) ([2]; Group 1 (sequence high, low, vehicle)): 45.0 (±1.8) %
Mean infarct volume (% of contralateral hemisphere) ([2]; Group 2 (sequence low, vehicle, high)): 41.4 (±2.3) %
Mean infarct volume (% of contralateral hemisphere) ([2]; Group 3 (sequence vehicle, high, low)): 39.0 (±3.3) %
Mean (SE) Infarct Volume (%) ([3]; 4-AP dose escalation 0.5, 1 and 2 mg/kg p.o. b.i.d. Days 56-65 after MCAO): 40.0 (2.3) %
Infarct volume, 4-aminopyridine versus vehicle (water) ([3]; Day 70 after MCAO): no differences in infarct volume were observed
